Experimental data as given in patent publication US20130281544A1, “HEPATOPROTECTANT ACTIVITY OF GARCINOL” (priority 2010, published 2013).
Values after ≈ are worked out from the molar mass of the structure shown.

Key:
[1] = test system: paracetamol induced liver damage in rats; experiment: Serum enzymes ALT, AST, ALP in paracetamol (APAP) induced liver damage; type: in vivo, Male Wistar Rats; conditions: for ALP percent change / ALT percent change / AST percent change / ALP / ALT / AST: serum; for ALP / ALT / AST: Mean ± SE
Method: Doses of Garcinol (GC) used for the study: 1.25, 2.5, 5, 10 mg/kg p.o.
Standard drug: Silymarin (50 mg/kg) p.o.
Experimental animals orally received paracetamol (400 mg/kg body weight) for seven days. The animals from drug treated group received 400 mg/kg body weight of paracetamol dissolved in water orally along with graded doses of test drug Garcinol for seven days. The standard group animals received 50 mg/kg body weight of standard drug silymarin and 400 mg/kg body weight of paracetamol for seven days and served as standard control. [N. Kanchana and A. Mohamed Sadiq, Hepatoprotective effect of Plumbago zeylanica on paracetamol induced liver toxicity in rats, Int J Pharm Pharm Sci, Vol 3, Issue 1, 151-154 (2011)].
Blood was collected from the retro-orbital plexus of experimental animals and no anti-coagulant was added. Blood was made to stand at room temperature for 1 hour. It was then centrifuged and clear serum was separated. The serum was then stored for analysis. Reference: (Magari et al., 2004).
(ASPARTATE AMINOTRANSFERASE and ALANINE AMINOTRANSFERASE), Reference: Ritman S, Frankel S, (1957). A colorimeteric method for the determination of serum glutamic oxaloacetic and glutamic pyruvic transaminases. American Journal of Clinical Pathology; 28: 56-63.
0.2 ml of serum, collected from test and control samples, was mixed with 1.0 ml of buffer solution and incubated for 60 min at 37° C. in a water bath. After the addition of 1.0 ml of chromogen solution, the samples were kept at room temperature for 20 minutes for the reaction to proceed and 10 ml NaOH was added. The optical density was red at 546 nm after 5 min. To the blank, serum was added after the addition of chromogen solution.
(ALKALINE PHOSPHATASE), Reference: Klaus Walter and Schutt C. (1974). Acid and alkaline phosphatase in serum. In: Methods of Enzymatic Analysis. Eds. Hans Ulrich Bergmeyer, Verlag ChemieWeinheim, Academic press, Inc. New York, 2nd Edition, Vol. 2, pp. 855-64.
Alkaline phosphatase activity measurement is based on the ability of the enzyme to hydrolyze p-nitrophenol phosphate under alkaline conditions. The cleaved product p-nitrophenol is yellow in alkaline solution and is measured at 400-420 nm (Klaus and Schutt, 1974). 2.0 ml of buffered substrate was taken in the tubes ‘Test’ ‘Control’ and ‘Blank’ followed by addition of serum and distilled water (0.1 ml) in ‘Test’ and ‘Blank’ respectively and incubated in a water bath for 30 minutes at 25° C. After incubation sodium hydroxide was added (0.25 N, 2 ml) to all the tubes, which was followed by serum (0.1 ml) to the tubes marked ‘Control’. The yellow colour formed was measured spectrophotometrically against blank at 410 nm. […]

[2] = test system: Hep G2 liver cancer cell line; experiment: in vitro; type: cell-based
in vitro = type: cell-based; conditions: human
mice = conditions: mouse, in vivo, po
Description: The parameters studied and observations recorded are included in Table 1. (OECD Guidelines for Testing of Chemicals. Guideline 423, Acute Oral Toxicity—Acute Toxic Class Method, Adopted, (1996). Organization for Economic Cooperation and Development).

## C=C(C)[C@@H](CC=C(C)C)C[C@@]12C[C@@H](CC=C(C)C)C(C)(C)[C@@](CC=C(C)C)(C(=O)C(C(=O)c3ccc(O)c(O)c3)=C1O)C2=O [Garcinol]
[1]; 1.25 mg/kg p.o.
  Average Protection: 13.06%
  ALP percent change: (8.21) %
  ALT percent change: (21.69) %
  AST percent change: (9.30) %
  ALP: 37.21 ± 3.44 μmol min/lt
  ALT: 862.97 ± 53.38 μmol min/lt
  AST: 761.61 ± 43.96 μmol min/lt
[1]; 2.50 mg/kg p.o.
  Average Protection: 21.51%
  ALP percent change: (15.44) %
  ALT percent change: (26.62) %
  AST percent change: (22.49) %
  ALP: 34.28 ± 1.98 μmol min/lt
  ALT: 808.64 ± 38.55 μmol min/lt
  AST: 650.88 ± 35.84 μmol min/lt
[1]; 5.00 mg/kg p.o.
  Average Protection: 36.31%
  ALP percent change: (24.17) %
  ALT percent change: (39.96) %
  AST percent change: (44.81) %
  ALP: 30.74 ± 2.05 μmol min/lt
  ALT: 661.67 ± 51.40 μmol min/lt
  AST: 463.41 ± 38.56 μmol min/lt
[1]; 10.00 mg/kg p.o.
  Average Protection: 33.22%
  ALP percent change: (17.11) %
  ALT percent change: (46.44) %
  AST percent change: (36.12) %
  ALP: 33.60 ± 1.93 μmol min/lt
  ALT: 590.22 ± 50.98 μmol min/lt
  AST: 536.39 ± 44.13 μmol min/lt
[2]
  effective concentration for mammalian hepatocyte protection: 0.78 to 6.25 µg/mL
[2]; Homo sapiens, HepG2, HEP G2 cells, MTT, read-out: Hepatoprotective activity in HEP G2 cells IC50
  IC50: 13.3 µg/mL (≈ 22.1 µM)
In vitro
  cytotoxicity at 0.78 μg/ml: -3.81%
  cytotoxicity at 1.56 μg/ml: -12.1%
  cytotoxicity at 3.13 μg/ml: -14.7%
  cytotoxicity at 6.25 μg/ml: -1.94%
  cytotoxicity at 12.5 μg/ml: 35.8%
  cytotoxicity at 25 μg/ml: 60.9%
  cytotoxicity at 50 μg/ml: 83.2%
  cytotoxicity at 100 μg/ml: 83.4%
  cytotoxicity at 200 μg/ml: 79.5%
mice
  Aggressiveness: Aggressiveness: Nil
  Atexia: Atexia: Nil
  Blanching: Blanching: Nil
  Clonic convulsions: Clonic convulsions: Nil
  Corneal: Corneal: No Effect
  Cyanosis: Cyanosis: Nil
  Diarrhea: Diarrhea: Nil
  Excitation: Excitation: Nil
  Fearful: Fearful: Nil
  Fecal Output: Fecal Output: Normal
  General Locomotor Activity: General Locomotor Activity: Normal
  General Movement: General Movement: Normal
  Hyperemia: Hyperemia: Nil
  Motor Activity: Motor Activity: Normal
  Muscular Weakness: Muscular Weakness: Nil
  Passive: Passive: Nil
  Pilo erection: Pilo erection: Nil
  Pinnal: Pinnal: No Effect
  Respiration Depth: Respiration Depth: Normal
  Respiration Rate: Respiration Rate: Normal
  Respiration rate: Respiration rate: Normal
  Salivation: Salivation: Normal
  Tremors: Tremors: Nil
  Urine Output: Urine Output: Normal
